Laboratory results from patent US12528768B2, “Crystalline form of a 7H-benzo[7]annulene-2-carboxylic acid derivative” (Sanofi, priority 2019, dated 2026).

Columns and labels:
[1] = Physical stability of the solid form (exposure to heat, moisture, nitrogen or ambient conditions, followed by XRPD); format: physicochemical; details: for stability of the solid form (in words): overall judgement; for result of exposure to heat and/or moisture: heat (for example 40° C.) and/or moisture
Protocol: II. X-Ray Powder Diffraction (XRPD) Analyses were carried out at room temperature on a Brucker D4 Endeavor instrument using the Bragg-Brentano parafocusing geometry. A sealed copper anode X-ray tube was used (λ, CuKα average=1.54178 Å). A LynxEye linear detector completed the setup. A counting time of few seconds per step in an angular range of from few 2-Theta degrees to several dozen 2-Theta degrees with a 0.016° step size in 20 was used for each sample analysis. For each experiment, the powder was deposited onto the surface of a sample holder.

[2] = Water sorption isotherms using Dynamic Vapor Sorption (DVS); format: physicochemical; details: for Change in Mass / Change in Mass (water uptake): DVS sorption step, 25° C.; for weight gain determined by DVS: about 25° C. (±0.2° C.); for Change in Mass (water uptake): target RH 95%
Protocol: III. Water Sorption Isotherms Using Dynamic Vapor Sorption (DVS) Experiments were performed on DVS automated gravimetric vapor sorption analyzer (Surface Measurement Systems Ltd., London, UK). Uptake and loss of water by the sample were gravimetrically measured with an ultra-microbalance with a mass resolution of ±0.1 μg. A controlled relative humidity was generated by mixing different proportions of dry and water saturated carrier gas streams. The temperature was maintained constant at 25.0±0.2° C., by enclosing the entire system in a temperature controlled incubator. A sample size between 5 and 20 mg was used. Prior to being exposed to any water vapor the sample was dried at 0% relative humidity (RH) to remove most surface water present and establish a dry, baseline mass. Next, the sample was exposed to an increasing relative humidity raised by steps of 5% RH, from 0 to 95% RH.

SMILES | stability of the solid form (in words) [1] | Change in Mass ([2]; target RH 0%) | Change in Mass ([2]; target RH 10%) | Change in Mass ([2]; target RH 20%) | Change in Mass ([2]; target RH 30%) | Change in Mass ([2]; target RH 40%) | Change in Mass ([2]; target RH 50%) | Change in Mass ([2]; target RH 60%) | Change in Mass ([2]; target RH 70%) | Change in Mass ([2]; target RH 80%) | Change in Mass ([2]; target RH 90%) | other results
O=C(O)c1ccc2c(c1)CCCC(c1ccc(Cl)cc1Cl)=C2c1ccc(O[C@H]2CCN(CCCF)C2)cc1 [anhydrate crystalline Form 4, 6-(2,4-dichlorophenyl)-5-[4-[(3S)-1-(3-fluoropropyl)pyrrolidin-3-yl]oxyphenyl]-8,9-dihydro-7H-benzo[7]annulene-2-carboxylic acid] | metastable | 0.00% | 0.07% | 0.21% | 0.34% | 0.43% | 0.51% | 0.58% | 0.64% | 0.71% | 0.75% | weight gain determined by DVS ([2]; at 90% relative humidity): 0.75 weight %
O=C(O)c1ccc2c(c1)CCCC(c1ccc(Cl)cc1Cl)=C2c1ccc(O[C@H]2CCN(CCCF)C2)cc1 [ethanol solvate] | unstable |  |  |  |  |  |  |  |  |  |  | result of exposure to heat and/or moisture [1]: formation of the anhydrate Form 1
O=C(O)c1ccc2c(c1)CCCC(c1ccc(Cl)cc1Cl)=C2c1ccc(O[C@H]2CCN(CCCF)C2)cc1 [anhydrate crystalline Form 3, 6-(2,4-dichlorophenyl)-5-[4-[(3S)-1-(3-fluoropropyl)pyrrolidin-3-yl]oxyphenyl]-8,9-dihydro-7H-benzo[7]annulene-2-carboxylic acid] | metastable | 0.00% | 0.78% | 1.13% | 1.29% | 1.46% | 2.21% | 2.46% | 2.62% | 2.73% | 2.84% | Change in Mass (water uptake) [2]: 2.92%; weight gain determined by DVS ([2]; at 95% relative humidity): 2.92 weight %
O=C(O)c1ccc2c(c1)CCCC(c1ccc(Cl)cc1Cl)=C2c1ccc(O[C@H]2CCN(CCCF)C2)cc1 [1,4-dioxane solvate] | physically unstable |  |  |  |  |  |  |  |  |  |  | conversion at room temperature ([1]; room temperature, one week): converts at room temperature to an unknown poorly crystallized solid form
O=C(O)c1ccc2c(c1)CCCC(c1ccc(Cl)cc1Cl)=C2c1ccc(O[C@H]2CCN(CCCF)C2)cc1 [2-propanol solvate] |  |  |  |  |  |  |  |  |  |  |  | transformation upon heating ([1]; upon heating): transforms into anhydrate Form 3 which itself generally transforms into anhydrate Form 2
O=C(O)c1ccc2c(c1)CCCC(c1ccc(Cl)cc1Cl)=C2c1ccc(O[C@H]2CCN(CCCF)C2)cc1 [compound of formula (1), 6-(2,4-dichlorophenyl)-5-[4-[(3S)-1-(3-fluoropropyl)pyrrolidin-3-yl]oxyphenyl]-8,9-dihydro-7H-benzo[7]annulene-2-carboxylic acid] |  |  |  |  |  |  |  |  |  |  |  | storage requirement for stability over time ([1]; amorphous form, industrial scale handling): needs storage under refrigerated conditions to maintain its stability over time

Second part, led by results:

stability of the solid form (in words) [1] | Change in Mass ([2]; target RH 0%) | Change in Mass ([2]; target RH 10%) | Change in Mass ([2]; target RH 20%) | Change in Mass ([2]; target RH 30%) | Change in Mass ([2]; target RH 40%) | Change in Mass ([2]; target RH 50%) | Change in Mass ([2]; target RH 60%) | Change in Mass ([2]; target RH 70%) | Change in Mass ([2]; target RH 80%) | Change in Mass ([2]; target RH 90%) | SMILES | other results
unstable |  |  |  |  |  |  |  |  |  |  | O=C(O)c1ccc2c(c1)CCCC(c1ccc(Cl)cc1Cl)=C2c1ccc(O[C@H]2CCN(CCCF)C2)cc1 [DCM solvate] | result of exposure to heat and/or moisture [1]: formation of the anhydrate Form 1; result of exposure to heat and/or N2 ([1]; heat and/or N2): formation of the anhydrate Form 4
stable | 0% | 0.01% | 0.02% | 0.02% | 0.03% | 0.03% | 0.04% | 0.05% | 0.05% | 0.06% | O=C(O)c1ccc2c(c1)CCCC(c1ccc(Cl)cc1Cl)=C2c1ccc(O[C@H]2CCN(CCCF)C2)cc1 [anhydrate crystalline Form 2, 6-(2,4-dichlorophenyl)-5-[4-[(3S)-1-(3-fluoropropyl)pyrrolidin-3-yl]oxyphenyl]-8,9-dihydro-7H-benzo[7]annulene-2-carboxylic acid] | conversion after exposure to moisture ([1]; exposure to moisture): does not convert to another crystalline form; effect of temperature variations on crystal structure ([1]; exposure to temperature variations): does not alter the crystal structure before its melting; stability under ambient conditions of temperature and pressure ([1]; room temperature and ambient pressure): thermodynamically more stable; hygroscopicity (in words) ([2]; 0 to 95% relative humidity, about 25° C., European pharmacopoeia wording): no hygroscopicity; Change in Mass (water uptake) [2]: 0.06%
metastable | 0.00% | 0.20% | 0.54% | 0.99% | 1.54% | 2.09% | 2.57% | 2.99% | 3.36% | 3.76% | O=C(O)c1ccc2c(c1)CCCC(c1ccc(Cl)cc1Cl)=C2c1ccc(O[C@H]2CCN(CCCF)C2)cc1 [anhydrate crystalline Form 1, 6-(2,4-dichlorophenyl)-5-[4-[(3S)-1-(3-fluoropropyl)pyrrolidin-3-yl]oxyphenyl]-8,9-dihydro-7H-benzo[7]annulene-2-carboxylic acid] | Change in Mass (water uptake) [2]: 4.07%; weight gain determined by DVS ([2]; at 95% relative humidity): 4.07 weight %
physically unstable |  |  |  |  |  |  |  |  |  |  | O=C(O)c1ccc2c(c1)CCCC(c1ccc(Cl)cc1Cl)=C2c1ccc(O[C@H]2CCN(CCCF)C2)cc1 [butanol solvate] | result of exposure to ambient conditions or dry nitrogen [1]: converts to an amorphous form
unstable |  |  |  |  |  |  |  |  |  |  | O=C(O)c1ccc2c(c1)CCCC(c1ccc(Cl)cc1Cl)=C2c1ccc(O[C@H]2CCN(CCCF)C2)cc1 [THF solvate] | result of exposure to heat and/or moisture [1]: formation of the anhydrate form 1
physically unstable |  |  |  |  |  |  |  |  |  |  | O=C(O)c1ccc2c(c1)CCCC(c1ccc(Cl)cc1Cl)=C2c1ccc(O[C@H]2CCN(CCCF)C2)cc1 [acetone solvate] | result of exposure to ambient conditions or dry nitrogen [1]: converts to low crystalline materials
